In patent US11787781B2, “Inhibiting ataxia telangiectasia and RAD3-related protein (ATR)” (Celator Pharmaceuticals, Inc., priority 2016, dated 2023):
Like-named read-outs stand apart in the source and are kept apart here.

Key:
ATM(h) = ATM(h) (Homo sapiens (Human), UniProt Q13315); test: ATM activity, […] KINASEPROFILER; format: biochemical; settings: estimated IC50
Description: Estimated IC50 values are as follows (obtained using […] KINASEPROFILER): […]

[1] = system: total and phospho-ATR (S428), phospho-CHK1 (S317 and S345) in DMS-114 cells; test: Western blot of total and phospho-ATR, phospho-CHK1 in DMS-114 cells; format: cell-based
Procedure: Whole cell protein lysates were generated after 1, 3, 6 and 24 hours using a 2% SDS containing cell lysis buffer and stored at −80° C. until all samples were collected and run together at the same time for the WesternBlot analysis. The following proteins and phosphoproteins of interest were detected by antibodies purchased from Cell Signaling Technology (see methods and materials part below): total and phospho-ATR (S428), phospho-CHK1 (S317 and S345), γH2AX, beta-actin.
All target and phospho-specific antibodies were purchased from Cell Signaling and/or Epitomics and were used at 1:1000 dilutions. A list of all antibodies is available in Table 6. Standard antibody based Western blot and immunohistochemistry protocols were used. Briefly, 2% SDS based cell lysis buffer was used to collect whole cell lysate for Western Blotting. Secondary antibodies and staining protocols were purchased and followed regarding LiCor Biosciences and/or BD Bioscience.
Cells were grown and treated in a 6 cm dish scale. To harvest cells, medium was removed and quickly replaced by ice cold PBS. PBS was then replaced with 250 μL of 2% SDS lysis buffer. After five minutes of incubation, the lysed cells were scraped off and loaded onto a cell lysate homogenizer microcentrifuge spin-column (QIAshredder, Qiagen, Cat.-Nr. 79656). The filtrate was then loaded onto a 0.2 μm centrifugal filter column (Nanosep MF 0.2_m, Pall, Cat.-Nr. ODM02C34). The lysates were then stored at −80° C.

U2OS cells = test: Cell death and growth assay, U2OS cells; format: cell-based; settings: set concentrations, in combination with Gemcitabine
Procedure: U20S and all other cells were grown in (RPMI) supplemented with 10% fetal bovine serum (FBS) and antibiotics. Imaging and time-lapse compatible NucLight red cell lines were generated as recommend by Essen Bioscience Inc. using lentiviral particles, infection and puromycin selection protocols.
The results were compared back to a prediction of cell growth and death with the combination of the two compounds (FIG. 18A).
(§1) In all cases, relative cell proliferation is reduced with the combinations compared to the drugs alone (FIG. 21B-C).

H358 cells = test: Cell death and growth assay, H358 cells; format: cell-based; settings: set concentrations, in combination with Gemcitabine
Description: as §1

SUM149 cells = test: Cell cycle stage profile, SUM149 cells; format: cell-based; settings: 24 hours after addition of SN38 and ATR inhibitor
ALK1/ACVRL1 = ALK1/ACVRL1 (Homo sapiens (Human), UniProt P37023); test: Broad kinase panel screening; format: biochemical
Description: (§2) Example 16: Broad Kinase Panel Screening (359)
(§3) Major hits out of 359 were: ALK, ARK, c-MER, CLK1, DYRK, GSK3a, GSK3b, FLT2, FLT3, MLK1, SIK2, TNIK, and YSK4.

ALK2/ACVR1 = ALK2/ACVR1 (Homo sapiens (Human), UniProt Q04771); test: Broad kinase panel screening; format: biochemical
Description: as §2, §3

ARK5/NUAK1 = ARK5/NUAK1 (Homo sapiens (Human), UniProt O60285); test: Broad kinase panel screening; format: biochemical
Description: as §2, §3

CLK1 = CLK1 (Homo sapiens (Human), UniProt P49759); test: Broad kinase panel screening; format: biochemical
Description: as §2, §3

CLK4 = CLK4 (Homo sapiens (Human), UniProt Q9HAZ1); test: Broad kinase panel screening; format: biochemical
Description: as §2, §3

DDR1 = DDR1 (Homo sapiens (Human), UniProt Q08345); test: Broad kinase panel screening; format: biochemical
Description: as §2, §3

DYRK2 = DYRK2 (Homo sapiens (Human), UniProt Q92630); test: Broad kinase panel screening; format: biochemical
Description: as §2, §3

FLT4/VEGFR3 = FLT4/VEGFR3 (Homo sapiens (Human), UniProt P35916); test: Broad kinase panel screening; format: biochemical
Description: as §2, §3

GSK3a = GSK3a (Homo sapiens (Human), UniProt P49840); test: Broad kinase panel screening; format: biochemical
Description: as §2, §3

GSK3b = GSK3b (Homo sapiens (Human), UniProt P49841); test: Broad kinase panel screening; format: biochemical
Description: as §2, §3

MLK1/MAP3K9 = MLK1/MAP3K9 (Homo sapiens (Human), UniProt P80192); test: Broad kinase panel screening; format: biochemical
Description: as §2, §3

MLK2/MAP3K10 = MLK2/MAP3K10 (Homo sapiens (Human), UniProt Q02779); test: Broad kinase panel screening; format: biochemical
Description: as §2, §3

MLK3/MAP3K11 = MLK3/MAP3K11 (Homo sapiens (Human), UniProt Q16584); test: Broad kinase panel screening; format: biochemical
Description: as §2, §3

PIM1 = PIM1 (Homo sapiens (Human), UniProt P11309); test: Broad kinase panel screening; format: biochemical
Description: as §2, §3

PKCmu/PRKD1 = PKCmu/PRKD1 (Homo sapiens (Human), UniProt Q15139); test: Broad kinase panel screening; format: biochemical
Description: as §2, §3

PKD2/PRKD2 = PKD2/PRKD2 (Homo sapiens (Human), UniProt Q9BZL6); test: Broad kinase panel screening; format: biochemical
Description: as §2, §3

RET = RET (Homo sapiens (Human), UniProt P07949); test: Broad kinase panel screening; format: biochemical
Description: as §2, §3

SIK2 = SIK2 (Homo sapiens (Human), UniProt Q9H0K1); test: Broad kinase panel screening; format: biochemical
Description: as §2, §3

TNIK = TNIK (Homo sapiens (Human), UniProt Q9UKE5); test: Broad kinase panel screening; format: biochemical
Description: as §2, §3

YSK4/MAP3K19 = YSK4/MAP3K19 (Homo sapiens (Human), UniProt Q56UN5); test: Broad kinase panel screening; format: biochemical
Description: as §2, §3

PIM1, sequence (P11309 whole entry, species assumed): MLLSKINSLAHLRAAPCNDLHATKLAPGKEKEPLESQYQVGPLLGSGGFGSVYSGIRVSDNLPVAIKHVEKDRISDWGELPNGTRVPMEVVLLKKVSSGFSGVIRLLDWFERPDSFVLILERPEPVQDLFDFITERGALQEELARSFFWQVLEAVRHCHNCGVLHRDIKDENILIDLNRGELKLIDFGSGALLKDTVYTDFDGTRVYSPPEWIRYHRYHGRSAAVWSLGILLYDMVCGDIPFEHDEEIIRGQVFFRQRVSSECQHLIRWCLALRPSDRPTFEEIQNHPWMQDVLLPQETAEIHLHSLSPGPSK
GSK3b, sequence (P49841 whole entry, species assumed): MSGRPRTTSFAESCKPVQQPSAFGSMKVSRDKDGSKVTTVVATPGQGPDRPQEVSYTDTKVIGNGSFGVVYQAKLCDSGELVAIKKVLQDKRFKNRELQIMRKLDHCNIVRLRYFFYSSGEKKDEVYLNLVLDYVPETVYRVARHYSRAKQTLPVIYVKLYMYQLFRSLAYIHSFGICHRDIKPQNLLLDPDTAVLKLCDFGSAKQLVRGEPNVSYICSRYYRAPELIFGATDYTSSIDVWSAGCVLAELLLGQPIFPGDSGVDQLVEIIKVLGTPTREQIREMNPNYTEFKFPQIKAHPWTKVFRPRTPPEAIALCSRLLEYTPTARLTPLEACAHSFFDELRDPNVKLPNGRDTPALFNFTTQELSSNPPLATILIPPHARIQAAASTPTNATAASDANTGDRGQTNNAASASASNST
GSK3a, sequence (P49840 whole entry, species assumed): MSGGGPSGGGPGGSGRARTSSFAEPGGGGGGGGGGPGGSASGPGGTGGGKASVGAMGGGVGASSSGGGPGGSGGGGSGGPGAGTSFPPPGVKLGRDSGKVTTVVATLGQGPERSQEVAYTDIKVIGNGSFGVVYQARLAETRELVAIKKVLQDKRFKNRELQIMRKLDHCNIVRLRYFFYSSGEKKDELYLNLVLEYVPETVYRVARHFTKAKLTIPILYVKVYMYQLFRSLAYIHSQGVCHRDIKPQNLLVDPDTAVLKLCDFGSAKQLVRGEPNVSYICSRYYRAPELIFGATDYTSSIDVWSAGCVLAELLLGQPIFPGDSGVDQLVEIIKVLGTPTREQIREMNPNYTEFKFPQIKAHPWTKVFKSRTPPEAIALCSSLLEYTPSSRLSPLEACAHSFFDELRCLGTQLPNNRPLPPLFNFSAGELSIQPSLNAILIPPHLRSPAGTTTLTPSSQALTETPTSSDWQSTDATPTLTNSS
MLK3/MAP3K11, sequence (Q16584 whole entry): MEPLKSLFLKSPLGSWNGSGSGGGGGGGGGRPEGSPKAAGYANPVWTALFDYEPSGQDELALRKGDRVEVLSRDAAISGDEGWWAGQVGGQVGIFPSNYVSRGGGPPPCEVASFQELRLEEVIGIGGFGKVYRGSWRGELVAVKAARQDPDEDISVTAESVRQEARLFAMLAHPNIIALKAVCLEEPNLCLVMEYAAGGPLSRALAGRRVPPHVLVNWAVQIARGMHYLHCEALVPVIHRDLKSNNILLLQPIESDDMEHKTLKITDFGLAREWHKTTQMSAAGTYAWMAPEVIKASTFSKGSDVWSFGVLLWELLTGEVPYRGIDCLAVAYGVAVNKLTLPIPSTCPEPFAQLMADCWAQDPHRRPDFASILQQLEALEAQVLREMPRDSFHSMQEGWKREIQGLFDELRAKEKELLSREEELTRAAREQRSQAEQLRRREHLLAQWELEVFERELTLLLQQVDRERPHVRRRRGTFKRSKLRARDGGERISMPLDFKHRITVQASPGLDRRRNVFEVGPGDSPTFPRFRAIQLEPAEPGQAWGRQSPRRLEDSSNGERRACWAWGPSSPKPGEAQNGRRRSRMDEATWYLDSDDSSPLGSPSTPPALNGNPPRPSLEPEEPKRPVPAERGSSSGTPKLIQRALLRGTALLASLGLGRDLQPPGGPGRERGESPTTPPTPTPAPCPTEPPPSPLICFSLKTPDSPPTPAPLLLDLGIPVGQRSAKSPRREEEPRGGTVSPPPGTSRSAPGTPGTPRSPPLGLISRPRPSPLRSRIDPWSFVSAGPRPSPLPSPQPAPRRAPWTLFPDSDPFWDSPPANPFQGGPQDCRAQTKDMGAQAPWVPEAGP
CLK1, sequence (P49759 whole entry): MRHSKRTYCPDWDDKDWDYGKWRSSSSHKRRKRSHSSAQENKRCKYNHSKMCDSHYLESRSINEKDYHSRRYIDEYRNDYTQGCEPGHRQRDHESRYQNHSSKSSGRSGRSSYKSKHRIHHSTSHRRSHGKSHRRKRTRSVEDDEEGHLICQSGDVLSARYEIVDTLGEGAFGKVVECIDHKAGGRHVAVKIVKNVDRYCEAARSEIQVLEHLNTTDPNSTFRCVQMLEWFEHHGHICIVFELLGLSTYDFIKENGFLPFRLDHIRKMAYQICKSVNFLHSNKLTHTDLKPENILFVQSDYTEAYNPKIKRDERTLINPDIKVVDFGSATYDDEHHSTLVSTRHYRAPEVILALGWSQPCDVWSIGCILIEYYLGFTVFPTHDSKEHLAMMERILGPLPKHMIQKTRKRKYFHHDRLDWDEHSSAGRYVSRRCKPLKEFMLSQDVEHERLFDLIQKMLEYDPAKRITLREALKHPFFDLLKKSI
PKCmu/PRKD1, sequence (Q15139 whole entry): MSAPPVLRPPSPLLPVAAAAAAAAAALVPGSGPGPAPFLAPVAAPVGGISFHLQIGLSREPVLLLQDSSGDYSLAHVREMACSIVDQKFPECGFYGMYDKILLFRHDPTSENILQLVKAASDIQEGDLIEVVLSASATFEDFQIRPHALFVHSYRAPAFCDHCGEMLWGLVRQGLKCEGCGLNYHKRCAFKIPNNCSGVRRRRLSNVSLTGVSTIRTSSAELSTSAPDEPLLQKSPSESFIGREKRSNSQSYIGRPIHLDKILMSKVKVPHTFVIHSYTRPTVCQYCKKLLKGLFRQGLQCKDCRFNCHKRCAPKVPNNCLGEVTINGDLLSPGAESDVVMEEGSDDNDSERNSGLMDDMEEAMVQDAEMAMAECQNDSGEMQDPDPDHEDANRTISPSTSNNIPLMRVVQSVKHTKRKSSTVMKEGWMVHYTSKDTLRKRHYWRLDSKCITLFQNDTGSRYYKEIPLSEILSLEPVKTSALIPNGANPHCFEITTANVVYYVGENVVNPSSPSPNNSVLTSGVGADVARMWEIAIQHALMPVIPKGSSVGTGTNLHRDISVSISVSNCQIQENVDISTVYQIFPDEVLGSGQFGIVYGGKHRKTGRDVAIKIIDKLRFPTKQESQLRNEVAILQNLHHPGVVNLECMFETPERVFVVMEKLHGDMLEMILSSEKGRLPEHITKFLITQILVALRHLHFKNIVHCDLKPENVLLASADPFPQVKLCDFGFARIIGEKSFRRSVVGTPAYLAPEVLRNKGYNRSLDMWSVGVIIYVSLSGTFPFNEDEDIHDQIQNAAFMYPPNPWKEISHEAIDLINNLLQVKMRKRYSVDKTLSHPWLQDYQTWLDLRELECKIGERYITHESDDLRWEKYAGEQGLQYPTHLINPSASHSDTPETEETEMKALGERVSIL
CLK4, sequence (Q9HAZ1 whole entry, species assumed): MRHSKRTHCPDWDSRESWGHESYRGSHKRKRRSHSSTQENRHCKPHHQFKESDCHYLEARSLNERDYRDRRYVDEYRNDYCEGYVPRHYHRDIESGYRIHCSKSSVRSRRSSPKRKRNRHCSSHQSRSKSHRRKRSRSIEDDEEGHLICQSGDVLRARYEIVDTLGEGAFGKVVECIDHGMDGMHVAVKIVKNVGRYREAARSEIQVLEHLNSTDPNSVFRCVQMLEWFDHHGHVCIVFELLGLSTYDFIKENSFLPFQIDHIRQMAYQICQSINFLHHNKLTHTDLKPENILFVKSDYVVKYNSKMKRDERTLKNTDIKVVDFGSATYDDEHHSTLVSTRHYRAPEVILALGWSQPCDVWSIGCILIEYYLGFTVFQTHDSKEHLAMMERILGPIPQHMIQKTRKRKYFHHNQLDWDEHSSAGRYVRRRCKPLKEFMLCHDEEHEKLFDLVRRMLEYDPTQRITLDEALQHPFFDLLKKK
DDR1, sequence (Q08345 19-913, species assumed): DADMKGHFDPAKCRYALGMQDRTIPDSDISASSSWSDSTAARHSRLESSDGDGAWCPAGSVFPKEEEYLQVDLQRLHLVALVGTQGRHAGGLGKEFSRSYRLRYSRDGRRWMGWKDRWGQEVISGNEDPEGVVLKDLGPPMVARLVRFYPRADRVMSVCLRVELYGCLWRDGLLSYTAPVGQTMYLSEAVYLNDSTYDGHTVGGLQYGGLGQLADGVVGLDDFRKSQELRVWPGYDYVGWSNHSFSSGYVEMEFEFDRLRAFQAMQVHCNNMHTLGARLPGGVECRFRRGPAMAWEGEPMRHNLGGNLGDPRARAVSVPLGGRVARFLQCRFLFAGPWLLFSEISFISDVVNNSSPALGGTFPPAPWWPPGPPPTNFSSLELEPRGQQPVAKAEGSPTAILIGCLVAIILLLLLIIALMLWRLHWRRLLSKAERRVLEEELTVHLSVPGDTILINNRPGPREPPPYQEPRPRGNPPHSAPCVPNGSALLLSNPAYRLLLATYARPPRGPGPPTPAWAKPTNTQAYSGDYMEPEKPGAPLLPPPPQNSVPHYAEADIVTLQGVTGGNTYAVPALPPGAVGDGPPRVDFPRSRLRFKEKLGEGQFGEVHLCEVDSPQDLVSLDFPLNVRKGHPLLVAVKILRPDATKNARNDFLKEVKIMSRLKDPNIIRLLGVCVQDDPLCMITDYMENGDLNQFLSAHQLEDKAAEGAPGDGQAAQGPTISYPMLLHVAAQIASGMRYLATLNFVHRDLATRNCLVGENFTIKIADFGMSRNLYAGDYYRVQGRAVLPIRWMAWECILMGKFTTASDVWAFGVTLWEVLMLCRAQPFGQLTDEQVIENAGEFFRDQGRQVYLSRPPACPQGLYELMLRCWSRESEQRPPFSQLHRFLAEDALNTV

## CN(C)CCC1CCN(CCS(=O)(=O)c2ccc(-c3cnc(N)c(C(=O)Nc4ccccc4)n3)cc2)CC1 [Compound 5, 3-amino-6-(4-((2-(4-(2-(dimethylamino)ethyl)piperidin-1-yl)ethyl)sulfonyl)phenyl)-N-phenylpyrazine-2-carboxamide]
ATM(h)
  IC50: > 10000 nM
[1]; ATR inhibitor 1 μM added to Gemcitabine 16 nM
  phosphorylation signal of CHK1 (S317 and S345) induced by Gemcitabine: abrogates the phosphorylation signal of CHK1
[1]; ATR inhibitor 1 μM, alone or with Gemcitabine 16 nM, up to 24 hrs
  total and phospho-ATR signal: strongly reduced
U2OS cells
  relative cell proliferation vs the drugs alone: reduced
H358 cells
  relative cell proliferation vs the drugs alone: reduced
SUM149 cells
  cell cycle stage profile vs controls: larger percentage of cells are arrested in G2 phase
ALK1/ACVRL1
  IC50: 35.7 nM
ALK2/ACVR1
  IC50: 16.6 nM
ARK5/NUAK1
  IC50: 16.8 nM
CLK1
  IC50: 134 nM
CLK4
  IC50: 88.6 nM
DDR1
  IC50: 191 nM
DYRK2
  IC50: 71.8 nM
FLT4/VEGFR3
  IC50: 63.4 nM
GSK3a; read-out: IC50 nM
  IC50: 5.73 nM
GSK3a; read-out: IC50
  IC50: 5.73 nM
GSK3b; read-out: IC50 nM
  IC50: 63 nM
GSK3b; read-out: IC50
  IC50: 63 nM
MLK1/MAP3K9
  IC50: 11.3 nM
MLK2/MAP3K10
  IC50: 9.58 nM
MLK3/MAP3K11; read-out: IC50 nM
  IC50: 5.9 nM
MLK3/MAP3K11; read-out: IC50
  IC50: 5.9 nM
PIM1; read-out: IC50 nM
  IC50: 72.6 nM
PIM1; read-out: IC50
  IC50: 72.6 nM
PKCmu/PRKD1
  IC50: 134 nM
PKD2/PRKD2
  IC50: 157 nM
RET
  IC50: 77.4 nM
SIK2
  IC50: 149 nM
TNIK
  IC50: 110 nM
YSK4/MAP3K19
  IC50: 29.2 nM
